Consider ten compounds from PubChem BioAssay AID588465 (NMMLSC, 2011).

SMILES strings stand for the structures.

Chain of Beta-adrenergic receptor kinase 1 (Homo sapiens) (P25098 whole entry, looked up): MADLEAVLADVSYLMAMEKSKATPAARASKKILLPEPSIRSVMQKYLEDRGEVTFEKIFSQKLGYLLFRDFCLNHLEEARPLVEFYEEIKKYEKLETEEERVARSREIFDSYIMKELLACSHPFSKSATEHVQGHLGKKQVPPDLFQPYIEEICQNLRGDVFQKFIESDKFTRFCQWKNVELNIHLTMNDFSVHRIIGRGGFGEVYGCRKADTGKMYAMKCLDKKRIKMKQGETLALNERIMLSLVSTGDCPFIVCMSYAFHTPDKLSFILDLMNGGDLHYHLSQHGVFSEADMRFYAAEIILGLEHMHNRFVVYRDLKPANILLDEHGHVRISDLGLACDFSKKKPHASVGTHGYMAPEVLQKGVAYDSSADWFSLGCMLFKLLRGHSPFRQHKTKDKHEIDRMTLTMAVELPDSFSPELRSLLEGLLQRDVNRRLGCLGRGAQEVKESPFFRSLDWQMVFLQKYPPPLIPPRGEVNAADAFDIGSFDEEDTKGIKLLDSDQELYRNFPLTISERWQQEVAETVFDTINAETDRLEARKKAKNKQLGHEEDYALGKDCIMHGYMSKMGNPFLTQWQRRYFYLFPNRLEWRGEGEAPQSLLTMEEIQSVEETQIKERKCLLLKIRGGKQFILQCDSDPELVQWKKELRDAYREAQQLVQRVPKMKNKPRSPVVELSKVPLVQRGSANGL

The assay concerns the target Beta-adrenergic receptor kinase 1 (Homo sapiens) (UniProt P25098). Put plainly: GRK2 kinase inhibitors, rhodopsin substrate, late-stage follow-up, orthogonal assay for GRK2 aptamer-displacement inhibitor project, biochemical, set 1 (AID 588465). The conditions noted are these: GRK2 rhodopsin phosphorylation, 32P incorporation, ROS; at 200 µM; stronger effect = lower value.
Take `Cc1cc2ccccc2n1CCNC(=O)c1cccs1`: the percent response (negative = inhibition) was -42.4%.

Turning to `COc1ccc(CNC(=O)CCS(=O)(=O)c2ccc(Br)cc2)cc1`, the percent response (negative = inhibition) is -59.5%. For `CCc1ccccc1NC(=O)CCS(=O)(=O)c1ccc(Br)cc1`, the percent response (negative = inhibition) was -26%. The result for `O=C(CCS(=O)(=O)c1ccc(Br)cc1)Nc1cc(F)ccc1F` reads -37.5%; that for `CCOc1ccc(CCNC(=O)CCS(=O)(=O)c2ccc(Br)cc2)cc1OCC`, -69.7%; that for `Cc1cccc(N2CCN(C(=O)CCS(=O)(=O)c3ccc(Br)cc3)CC2C)c1` (stereo not given), -24%. As for `Cc1cc(=O)[nH]c(SCC(=O)NCc2ccco2)n1`, the percent response (negative = inhibition) was -17.7%. Take `Cc1ccccc1NC(=O)CCS(=O)(=O)c1ccc(Br)cc1`: the percent response (negative = inhibition) is -12.6%. With `O=C(CCS(=O)(=O)c1ccc(Br)cc1)NCCc1ccc(Cl)cc1`, the percent response (negative = inhibition) is -35.6%. On to `O=C(O)C1CC(=O)N(c2ccc3c(c2)OCCO3)C1` (stereo not given), for which the percent response (negative = inhibition) is -77.7%.
